For experiment [1], the system named is HeLa cells. In words: Proliferation assay HeLa. The class given is cell-based, human. The conditions noted are these: 4 days, crystal violet, read-out: Inhibition of HeLa cell proliferation IC50. The method, then: (§1) Cultivated tumour cells (HeLa, human cervical tumour cells, ATCC CCL-2; NCI-H460, human non-small cell lung carcinoma cells, ATCC HTB-177; A2780, human ovarian carcinoma cells, ECACC #93112519; DU 145, hormone-independent human prostate carcinoma cells, ATCC HTB-81; HeLa-MaTu-ADR, multidrug-resistant human cervical carcinoma cells, EPO-GmbH Berlin; Caco-2, human colorectal carcinoma cells, ATCC HTB-37; B16F10, mouse melanoma cells, ATCC CRL-6475) were plated at a density of 5,000 cells/well (DU145, HeLa-MaTu-ADR), 3,000 cells/well (NCI-H460, HeLa), 2,500 cells/well (A2780), 1,500 cells/well (Caco-2), or 1,000 cells/well (B16F10) in a 96-well multititer plate in 200 μL of their respective growth medium supplemented 10% fetal calf serum. After 24 hours, the cells of one plate (zero-point plate) were stained with crystal violet (see below), while the medium of the other plates was replaced by fresh culture medium (200 μl), to which the test substances were added in various concentrations (0 μM, as well as in the range of 0.001-10 μM). The cells were incubated for 4 days in the presence of test substances. Cell proliferation was determined by staining the cells with crystal violet: the cells were fixed by adding 20 μl/measuring point of an 11% glutaric aldehyde solution for 15 minutes at room temperature. After three washing cycles of the fixed cells with water, the plates were dried at room temperature. The cells were stained by adding 100 μl/measuring point of a 0.1% crystal violet solution (pH 3.0). After three washing cycles of the stained cells with water, the plates were dried at room temperature. The dye was dissolved by adding 100 μl/measuring point of a 10% acetic acid solution. The extinction was determined by photometry at a wavelength of 595 nm. The change of cell number, in percent, was calculated by normalization of the measured values to the extinction values of the zero-point plate (=0%) and the extinction of the untreated (0 μm) cells (=100%). The IC50 values (inhibitory concentration at 50% of maximal effect) were determined by means of a 4 parameter fit. Non-adherent MOLM-13 human acute myeloid leukemia cells (DSMZ ACC 554) were seeded at a density of 5,000 cells/well in a 96-well multititer plate in 100 μL of growth medium supplemented 10% fetal calf serum. After 24 hours, cell viability of one plate (zero-point plate) was determined with the Cell Titre-Glo Luminescent Cell Viability Assay (Promega), while 50 μL of test compound containing medium was added to the wells of the other plates (final concentrations in the range of 0.001-1 μM and DMSO controls). Cell viability was assessed after 72-hour exposure with the Cell Titre-Glo Luminescent Cell Viability Assay (Promega). IC50 values (inhibitory concentration at 50% of maximal effect) were determined by means of a 4 parameter fit on measurement data which were normalized to vehicle (DMSO) treated cells (=100%) and measurement readings taken immediately before compound exposure (=0%).

Experiment [2] deals with DU145 cells. In words: Proliferation assay DU145. The class given is cell-based, human. The conditions noted are these: 4 days, crystal violet, read-out: Inhibition of DU145 cell proliferation IC50. How it is done: as §1
The target of experiment [3] is T1, CDK2/CycE (Homo sapiens, UniProt P24941).
T1 construct: GST; purchased ProQinase GmbH (Freiburg, Germany); host or cells: insect cells (Sf9)
In words: CDK2/CycE high ATP kinase assay (TR-FRET, Method 2b). The class given is biochemical. The conditions noted are these: 2 mM ATP. The method, then:
2b. CDK2/CycE High ATP Kinase Assay:
CDK2/CycE-inhibitory activity of compounds of the present invention at 2 mM adenosine-tri-phosphate (ATP) was quantified employing the CDK2/CycE TR-FRET (TR-FRET=Time Resolved Fluorescence Resonance Energy Transfer) assay as described in the following paragraphs.
Recombinant fusion proteins of GST and human CDK2 and of GST and human CycE, expressed in insect cells (Sf9) and purified by Glutathion-Sepharose affinity chromatography, were purchase from ProQinase GmbH (Freiburg, Germany). As substrate for the kinase reaction biotinylated peptide biotin-Ttds-YISPLKSPYKISEG (C-terminus in amid form) was used which can be purchased e.g. from the company JERINI peptide technologies (Berlin, Germany).
For the assay 50 nl of a 100 fold concentrated solution of the test compound in DMSO was pipetted into a black low volume 384 well microtiter plate (Greiner Bio-One, Frickenhausen, Germany), 2 μl of a solution of CDK2/CycE in aqueous assay buffer [50 mM Tris/HCl pH 8.0, 10 mM MgCl2, 1.0 mM dithiothreitol, 0.1 mM sodium ortho-vanadate, 0.01% (v/v) Nonidet-P40 (Sigma)] were added and the mixture was incubated for 15 min at 22° C. to allow pre-binding of the test compounds to the enzyme before the start of the kinase reaction. […] The concentration of CDK2/CycE was adjusted depending of the activity of the enzyme lot and was chosen appropriate to have the assay in the linear range, typical concentrations were in the range of 15 ng/ml. The reaction was stopped by the addition of 5 μl of a solution of TR-FRET detection reagents (0.2 μM streptavidine-XL665 [Cisbio Bioassays, Codolet, France] and 1 nM anti-RB(pSer807/pSer811)-antibody from BD Pharmingen [#558389] and 1.2 nM LANCE EU-W1024 labeled anti-mouse IgG antibody [Perkin-Elmer, product no. AD0077, as an alternative a Terbium-cryptate-labeled anti-mouse IgG antibody from Cisbio Bioassays can be used]) in an aqueous EDTA-solution (100 mM EDTA, 0.2% (w/v) bovine serum albumin in 100 mM HEPES pH 7.5).
The resulting mixture was incubated 1 h at 22° C. to allow the formation of complex between the phosphorylated biotinylated peptide and the detection reagents. Subsequently the amount of phosphorylated substrate was evaluated by measurement of the resonance energy transfer from the Eu-chelate to the streptavidine-XL. Therefore, the fluorescence emissions at 620 nm and 665 nm after excitation at 350 nm were measured in a TR-FRET reader, e.g. a Rubystar (BMG Labtechnologies, Offenburg, Germany) or a Viewlux (Perkin-Elmer). The ratio of the emissions at 665 nm and at […] was taken as the measure for the amount of phosphorylated substrate. The data were normalised (enzyme reaction without inhibitor=0% inhibition, all other assay components but no enzyme=100% inhibition).

Read-outs that look alike come from different tables or passages of the source.

Drawing on patent publication US9963464B2, “Macrocyclic compounds” (Bayer Pharma Aktiengesellschaft, priority 2014, dated 2018), this text covers IC50 for three molecules.

Consider `CSCc1cc2nc(c1)OCCCCOc1cc(F)ccc1-c1cc(ncc1F)N2` [Example 12, 16,20-Difluoro-9-[(methylsulfanyl)methyl]-2,3,4,5-tetrahydro-12H-11,7-(azeno)-13,17-(metheno)-1,6,12,14-benzodioxadiazacyclononadecine], for which the IC50 turned out to be 281 nM in experiment [1] (Homo sapiens, HeLa, 96 h); 218 nM in experiment [2] (Homo sapiens, DU-145, 96 h); 890 nM in experiment [3].
For `NCCS(=O)(=O)Cc1cc2nc(c1)OCCCOc1cc(F)ccc1-c1cc(ncc1F)N2` [Example 26, 2-({[15,19-difluoro-3,4-dihydro-2H,11H-10,6-(azeno)-12,16-(metheno)-1,5,11,13-benzodioxadiazacyclooctadecin-8-yl]methyl}sulfonyl)ethanamine] the same measures were 105 nM, 386 nM and 43.7 nM.
For the molecule “({[15,19-difluoro-3,4-dihydro-2H,11H-10,6-(azeno)-12,16-(metheno)-1,5,11,13-benzodioxadiazacyclooctadecin-8-yl]methyl}sulfonyl)acetic acid [Example 27]”, the figures for the IC50 in experiment [1], in experiment [2] and in experiment [3] were 1050 nM, 3360 nM and 6.3 nM, respectively.
